Experimental data published in EP0976747A2, “Use of 5HT-1F receptor antagonists for treating anxiety disorders” (ELI LILLY AND COMPANY, priority 1998, dated 2000).

Tested on: male Wister rats
Test: Social interaction test of experimental anxiety
Assay type: in vivo
Conditions: 20 mg/kg intraperitoneal, tested 1 hour after dosing, 5 minutes observation, compared to baseline, significance at p<0.01
Description: The procedure for this assay is summarized below.
All experiments were performed on male Wister rats (Harlan laboratories, 275-300 gm). The rats were individually housed in a temperature controlled room (72°F) on a 12 hour day/night cycle. The rats were provided food and water ad libitum.
Approximately 40 mg of the test compound was weighed into a 20 mL glass vial. To this solid were added 80µL of lactic acid (85%). The mixture was sonicated for 2 minutes and then 4mL of distilled water was added in lmL increments. Sonication of this mixture was continued until all of the solid had dissolved. Following sonication, the pH of the mixture was raised by the addition of dilute aqueous sodium hydroxide until the mixture reached a pH of about 5.5.
Each rat was weighed and the test compound administered by intraperitoneal injection at 20 mg/kg of body weight. […]
Experimental anxiety was measured by a social interaction test. […] A video camera was fixed above the social interaction box and all behavioral tests were recorded. […] The amount of time that the rat which received test compound spent interacting (i.e. grooming, sniffing, crawling upon) with the other rat was recorded. […]
Social interaction data was analyzed as total interaction time in seconds and the raw scores were compared between baseline and treatment. […]

Compound: O[C@H](COc1ccc2ccccc2c1)CN1CCC(O)(c2cnc3ccccc3c2)CC1 [Example 37, 1-((2S)-hydroxy-3-(naphth-2-yloxy)prop-1-yl)-4-hydroxy-4-(quinolin-3-yl)piperidine]
- social interaction time: significantly increase social interaction time as compared to baseline
